Values of other authors as cited in patent publication US9259452B2, “Deacetylase inhibitor therapy” (Celgene Corporation, priority 2006, dated 2016).
Where two headings read alike, the source gives them in different places.

Settings: cited from earlier work; for ECG effects reported: clinical trials

## O=C(/C=C/c1ccc(CN(CCO)CCc2cc3ccccc3[nH]2)cc1)NO [LAQ824]
77 patients treated
  Change in QTc interval: statistically significant increase
  ECG effects reported: non-specific T-wave or ST segment abnormalities
Of 77 patients treated
  Patients having QTc prolongation of greater than 60 ms: 10%
When re-treated at a lower dose level
  Event in one patient with QTc greater than 500 ms: torsades de pointes

## Cc1[nH]c2ccccc2c1CCNCc1ccc(/C=C/C(=O)NO)cc1 [LBH589]
12 patients treated at higher dose levels
  Patients with QTc prolongation of greater than 500 ms: 42%
Of 12 patients treated at higher dose levels
  Patients with QTc prolongation of greater than 500 ms: 5

## O=C(/C=C/c1cccc(S(=O)(=O)Nc2ccccc2)c1)NO [PXD101]
Phase I trials
  Supraventricular tachycardia reported: dose limiting toxicity

## O=C(CCCCCCC(=O)Nc1ccccc1)NO [SAHA, Suberoylanilide Hydroxamic Acid]
  ECG effects reported: non-specific T-wave or ST segment abnormalities
